Source: patent US8334299B2, “β-carboline for the treatment of neurodegenerative diseases” (Ellneuroxx, Ltd., priority 2007, dated 2012)

B1: GDNF: the protein glial cell line-derived neurotrophic factor, infused in Parkinson patients (Love et al.) (protein, UniProt P39905 78-211, looked up)
Glial cell line-derived …: SPDKQMAVLPRRERNRQAAAANPENSRGKGRRGQRGKNRGCVLTAIHLNVTDLGLGYETKEELIFRYCSGSCDAAETTYDKILKNLSRNRRLVSDKVGQACCRPIAFDDDLSFLDDNLVYHILRKHSAKRCGCI

tested on: dopamine concentration in the striatum; test: Chronic MPP+ infusion model of Parkinson's disease, dopamine concentration in the striatum; format: in vivo, rat; set-up: key to Anti-Parkinson test in comparison to 9-methyl-β-carboline: +: slightly better than 9-methyl-β-carboline; ±: the same as 9-methyl-β-carboline; −: slightly worse than 9-methyl-β-carboline; conditions: tested as described in example 8
Text: In the diagram the dopamine (DA) levels of the left and right striatum of the single rats are indicated.
To investigate Parkinson's disease acute in vivo models are used for years although chronic models would be a better model for the disease. Another disadvantage of the acute models is that ca. 40% of the animals die from the application of the neurotoxin. Therefore, we have chosen a chronic model in which comparably very low doses of neurotoxin 1-methyl-4-phenylpyridinium (MPP^+) were infused for 28 days into the left lateral ventricle of the rat brain. The substance was continuously applied through osmotic minipumps. Thereby, casualties were completely avoided. After four weeks, either solvent or equimolar amounts of the sample substance, namely neuroprotective betacarboline, resp. 9-alkyl-betacarboline was infused for two weeks via the same catheter. In a preliminary study for dose-finding the MPP^+ dose which leads to a reduction by 40% of the dopamine concentration in the striatum was determined. The dopamine concentration in the striatum is a characteristic marker for Parkinson's disease in which a degeneration of dopaminergic neurons occurs.
The compounds A to L were tested as described in example 8. The test results of the compounds A to L are indicated in the following table in comparison to 9-methyl-β-carboline.

Molecule	Anti-Parkinson test in comparison to 9-methyl-β-carboline
CN(C)CCn1c2ccccc2c2ccncc21 [Compound L]	+
CCCn1c2ccccc2c2ccncc21 [Compound A]	+
CCn1c2ccccc2c2ccncc21 [Compound F]	±
COC(=O)CCn1c2ccccc2c2ccncc21 [Compound J]	±
COCCn1c2ccccc2c2ccncc21 [Compound G]	±
CC(C)C(C)Cn1c2ccccc2c2ccncc21 (centres unmarked) [Compound K]	±
CCCCCCCCCCCCCCn1c2ccccc2c2ccncc21 [Compound C]	±
CCCCCCn1c2ccccc2c2ccncc21 [Compound B]	±
C#CCn1c2ccccc2c2ccncc21 [Compound H]	+
C=CCn1c2ccccc2c2ccncc21 [Compound D]	+
CC(C)Cn1c2ccccc2c2ccncc21 [Compound E]	+
c1ccc(Cn2c3ccccc3c3ccncc32)cc1 [Compound I]	−

tested on: dopaminergic neurons in the anterior putamen; test: not given; conditions: patients suffering from Parkinson's disease, infusion; cited from earlier work

Molecule	cellular extensions of dopaminergic neurons in the anterior putamen	clinical symptoms
B1	growth of cellular extensions	improvement in clinical symptoms
